Measurements taken from PubChem BioAssay AID651992 (The Scripps Research Institute Molecular Screening Center, 2013).

Tested on: CFBE41o- DeltaF508-CFTR YFP halide quenching kinetics
Experiment: PubChem AID 651992
Details: at 40 µM (top of the series)

COc1ccc(/C=C/C=C2C(=O)NC(=O)NC2=O)cc1
YFP fluorescence ratio, lower = correction: 1
